{
  "source": "patent US6730813B2",
  "about": "“Method for producing n-(phosphonomethyl) glycine” (Monsanto Technology LLC, priority 2000, dated 2004)",
  "origin": "cited, not measured here",
  "note": "Read-outs that look alike come from different tables or passages of the source.",
  "data": [
    {"smiles": "O=C(O)CNCP(=O)(O)O", "note": "[glyphosate, N-(phosphonomethyl)glycine]", "values": [
      {"measurement": "solubility in organic solvents", "setting": "organic solvents, compared with water", "result": "much lower"},
      {"measurement": "solubility in water", "setting": "5° C.", "result": 0.8, "unit": "%"},
      {"measurement": "solubility in water", "setting": "20° C.", "result": 1.1, "unit": "%"},
      {"measurement": "solubility in water", "setting": "95° C.", "result": 6.5, "unit": "%"}
    ]}
  ]
}
